# Data published in article PMC5218480 (PLoS ONE, 2017).
# Tested on: MV-4-11 cells
# Assay: Gene expression microarray analysis (Affymetrix PrimeView) and GSEA
# Type: cell-based, human
# Design: RFU PODN (11730768_x_at) / Fold change /veh PODN (11730768_x_at) / RFU LINC00158 (11744669_a_at) / Fold change /veh LINC00158 (11744669_a_at) / RFU DUSP10 (11751237_a_at) / Fold change /veh DUSP10 (11751237_a_at) / RFU ID3 (11757404_x_at) / Fold change /veh ID3 (11757404_x_at) / RFU PLEKHG5 (11737974_s_at) / Fold change /veh PLEKHG5 (11737974_s_at) / RFU LRRC4B (11730491_at) / Fold change /veh LRRC4B (11730491_at) / RFU GIMAP4 (11747438_a_at) / Fold change /veh GIMAP4 (11747438_a_at) / RFU KRT8 (11758183_x_at) / Fold change /veh KRT8 (11758183_x_at) / RFU CNN1 (11734310_a_at) / Fold change /veh CNN1 (11734310_a_at) / RFU VPS37D (11726825_at) / Fold change /veh VPS37D (11726825_at) / RFU C10orf10 (11716522_x_at) / Fold change /veh C10orf10 (11716522_x_at) / RFU KIR2DL2 /// KIR2DL4 /// KIR2DL5A /// KIR2DL5B /// KIR2DS1 /// KIR2DS2 /// KIR2DS3 /// KIR2DS4 /// KIR3DL3 /// KIR3DL3 /// KIR3DS1 (11738374_at) / Fold change /veh KIR2DL2 /// KIR2DL4 /// KIR2DL5A /// KIR2DL5B /// KIR2DS1 /// KIR2DS2 /// KIR2DS3 /// KIR2DS4 /// KIR3DL3 /// KIR3DL3 /// KIR3DS1 (11738374_at) / RFU C1QL1 (11718748_at) / Fold change /veh C1QL1 (11718748_at) / RFU TMPRSS4 (11747572_a_at) / Fold change /veh TMPRSS4 (11747572_a_at) / RFU HAMP (11756126_x_at) / Fold change /veh HAMP (11756126_x_at) / RFU RNFT2 (11725882_a_at) / Fold change /veh RNFT2 (11725882_a_at) / RFU NR4A2 (11747474_a_at) / Fold change /veh NR4A2 (11747474_a_at) / RFU ABCC12 (11746883_a_at) / Fold change /veh ABCC12 (11746883_a_at) / RFU TMEM136 (11760407_x_at) / Fold change /veh TMEM136 (11760407_x_at) / RFU CLDN22 /// WWC2 (11732394_at) / Fold change /veh CLDN22 /// WWC2 (11732394_at) / RFU HLA-DPB1 (11760878_x_at) / Fold change /veh HLA-DPB1 (11760878_x_at) / RFU SPINT1 (11716480_a_at) / Fold change /veh SPINT1 (11716480_a_at) / RFU GAP43 (11754022_s_at) / Fold change /veh GAP43 (11754022_s_at) / RFU A4GNT (11735810_at) / Fold change /veh A4GNT (11735810_at) / RFU PRB3 (11715151_x_at) / Fold change /veh PRB3 (11715151_x_at) / RFU TUBB4B (11761932_at) / Fold change /veh TUBB4B (11761932_at) / RFU CAPN14 (11732068_a_at) / Fold change /veh CAPN14 (11732068_a_at) / RFU TMCC2 (11721928_a_at) / Fold change /veh TMCC2 (11721928_a_at) / RFU IRGQ (11745062_a_at) / Fold change /veh IRGQ (11745062_a_at) / RFU FAM174B (11720279_a_at) / Fold change /veh FAM174B (11720279_a_at) / RFU TMPRSS4 (11748680_a_at) / Fold change /veh TMPRSS4 (11748680_a_at) / RFU FAM212B (11763350_a_at) / Fold change /veh FAM212B (11763350_a_at) / RFU PLEKHG5 (11743358_a_at) / Fold change /veh PLEKHG5 (11743358_a_at) / RFU ZSCAN30 (11745921_a_at) / Fold change /veh ZSCAN30 (11745921_a_at) / RFU CMKLR1 (11741424_a_at) / Fold change /veh CMKLR1 (11741424_a_at) / RFU LOC101060620 /// MAPK8IP1 (11723275_at) / Fold change /veh LOC101060620 /// MAPK8IP1 (11723275_at) / RFU SPTSSB (11747773_x_at) / Fold change /veh SPTSSB (11747773_x_at) / RFU PRSS12 (11739890_at) / Fold change /veh PRSS12 (11739890_at) / RFU BIN1 (11741810_x_at) / Fold change /veh BIN1 (11741810_x_at) / RFU WNT11 (11732464_a_at) / Fold change /veh WNT11 (11732464_a_at) / RFU C10orf10 (11716521_a_at) / Fold change /veh C10orf10 (11716521_a_at) / RFU C5orf56 (11738089_at) / Fold change /veh C5orf56 (11738089_at) / RFU CYB561 (11721691_x_at) / Fold change /veh CYB561 (11721691_x_at) / RFU ANKRD19P (11752326_a_at) / Fold change /veh ANKRD19P (11752326_a_at) / RFU OR2T12 /// OR2T33 /// OR2T8 (11738714_s_at) / Fold change /veh OR2T12 /// OR2T33 /// OR2T8 (11738714_s_at) / RFU VCAN (11748164_a_at) / Fold change /veh VCAN (11748164_a_at) / RFU JSRP1 (11732532_at) / Fold change /veh JSRP1 (11732532_at) / RFU KRTAP10-11 (11738290_x_at) / Fold change /veh KRTAP10-11 (11738290_x_at) / RFU MYO3A (11730013_a_at) / Fold change /veh MYO3A (11730013_a_at) / RFU EBF3 (11725865_a_at) / Fold change /veh EBF3 (11725865_a_at) / RFU CAMK2N1 (11719241_x_at) / Fold change /veh CAMK2N1 (11719241_x_at) / RFU C5orf56 (11738088_a_at) / Fold change /veh C5orf56 (11738088_a_at) / RFU OLFML3 (11715873_a_at) / Fold change /veh OLFML3 (11715873_a_at) / RFU LOC100653217 /// NTM (11731650_a_at) / Fold change /veh LOC100653217 /// NTM (11731650_a_at) / RFU MAPK11 (11762145_a_at) / Fold change /veh MAPK11 (11762145_a_at) / RFU FIZ1 (11724087_x_at) / Fold change /veh FIZ1 (11724087_x_at) / RFU OASL (11726364_x_at) / Fold change /veh OASL (11726364_x_at) / RFU SOX15 (11748057_x_at) / Fold change /veh SOX15 (11748057_x_at) / RFU CD79A (11719716_a_at) / Fold change /veh CD79A (11719716_a_at) / RFU HIST1H1D (11736915_at) / Fold change /veh HIST1H1D (11736915_at) / RFU CASKIN2 (11723855_a_at) / Fold change /veh CASKIN2 (11723855_a_at) / RFU LOC730098 (11760151_x_at) / Fold change /veh LOC730098 (11760151_x_at) / RFU OR4N2 (11742367_at) / Fold change /veh OR4N2 (11742367_at) / RFU PRRT2 (11749266_a_at) / Fold change /veh PRRT2 (11749266_a_at) / RFU SNX32 (11753110_a_at) / Fold change /veh SNX32 (11753110_a_at) / RFU CDHR5 (11726645_a_at) / Fold change /veh CDHR5 (11726645_a_at) / RFU RCAN1 (11760418_a_at) / Fold change /veh RCAN1 (11760418_a_at) / RFU FAM167A (11723789_a_at) / Fold change /veh FAM167A (11723789_a_at) / RFU FAM26E (11764081_at) / Fold change /veh FAM26E (11764081_at) / RFU ISYNA1 (11749810_s_at) / Fold change /veh ISYNA1 (11749810_s_at) / RFU ACY1 (11761880_at) / Fold change /veh ACY1 (11761880_at) / RFU 11764098_at / Fold change /veh 11764098_at / RFU SAMD14 (11745864_x_at) / Fold change /veh SAMD14 (11745864_x_at) / RFU NPB (11741838_a_at) / Fold change /veh NPB (11741838_a_at) / RFU TMPRSS6 (11731388_a_at) / Fold change /veh TMPRSS6 (11731388_a_at) / RFU KRTAP10-2 (11738614_at) / Fold change /veh KRTAP10-2 (11738614_at) / RFU ARHGAP8 /// PRR5-ARHGAP8 (11727945_x_at) / Fold change /veh ARHGAP8 /// PRR5-ARHGAP8 (11727945_x_at) / RFU KRTAP5-7 /// NADSYN1 (11734609_at) / Fold change /veh KRTAP5-7 /// NADSYN1 (11734609_at) / RFU RASL12 (11751679_a_at) / Fold change /veh RASL12 (11751679_a_at) / RFU CDKN2B (11736163_a_at) / Fold change /veh CDKN2B (11736163_a_at) / RFU PRF1 (11729649_at) / Fold change /veh PRF1 (11729649_at) / RFU, ZNF638 /// ZNF638-IT1 / Fold change vs veh, ZNF638 /// ZNF638-IT1 / RFU, PANK3 / Fold change vs veh, PANK3 / RFU, SH3YL1 / Fold change vs veh, SH3YL1 / RFU, ZEB2 / Fold change vs veh, ZEB2 / RFU, NRIP1 / Fold change vs veh, NRIP1 / RFU, PTTG1IP / Fold change vs veh, PTTG1IP / RFU, CAPN2 / Fold change vs veh, CAPN2 / RFU, MED14 / Fold change vs veh, MED14 / RFU, SNORA58 / Fold change vs veh, SNORA58 / RFU, C1orf63 / Fold change vs veh, C1orf63 / RFU, LRRFIP1 / Fold change vs veh, LRRFIP1 / RFU, NDUFAF7 / Fold change vs veh, NDUFAF7 / RFU, SLC12A2 / Fold change vs veh, SLC12A2 / RFU, IBTK / Fold change vs veh, IBTK / RFU, ESF1 / Fold change vs veh, ESF1 / Fold change vs veh, TMEM50B / RFU, TAOK1 / Fold change vs veh, TAOK1 / RFU, ACBD3 / Fold change vs veh, ACBD3 / RFU, TMA16 / Fold change vs veh, TMA16 / RFU, RWDD3 / Fold change vs veh, RWDD3 / RFU, BCAT1 / Fold change vs veh, BCAT1 / RFU, EDEM3 / Fold change vs veh, EDEM3 / RFU, TMEM33 / Fold change vs veh, TMEM33 / RFU, WDR75 / Fold change vs veh, WDR75 / RFU, AHCTF1 / Fold change vs veh, AHCTF1 / RFU, TFRC / Fold change vs veh, TFRC / RFU, ZDHHC17 / Fold change vs veh, ZDHHC17 / RFU, NOM1 / Fold change vs veh, NOM1 / RFU, ARL8B / Fold change vs veh, ARL8B / RFU, ZBTB11 / Fold change vs veh, ZBTB11 / RFU, TAMM41 / Fold change vs veh, TAMM41 / RFU, KIAA1704 /// LOC100996395 / Fold change vs veh, KIAA1704 /// LOC100996395 / RFU, ING1 / Fold change vs veh, ING1 / RFU, TRMT61B / Fold change vs veh, TRMT61B / RFU, FUBP3 / Fold change vs veh, FUBP3 / RFU, TP53 / Fold change vs veh, TP53 / RFU, TNKS2 / Fold change vs veh, TNKS2 / RFU, ZFP14 / Fold change vs veh, ZFP14 / RFU, ACTR2 / Fold change vs veh, ACTR2 / RFU, PPP3R1 / Fold change vs veh, PPP3R1 / RFU, PIK3R1 / Fold change vs veh, PIK3R1 / RFU, HNRNPA1 / Fold change vs veh, HNRNPA1 / RFU, RNF170 / Fold change vs veh, RNF170 / RFU, ZNF28 / Fold change vs veh, ZNF28 / RFU, RNGTT / Fold change vs veh, RNGTT / RFU, OGT / Fold change vs veh, OGT / RFU, BRD1 / Fold change vs veh, BRD1 / RFU, MARS / Fold change vs veh, MARS / RFU, ZNF655 / Fold change vs veh, ZNF655 / RFU, FAHD1 / Fold change vs veh, FAHD1 / RFU, BDP1 / Fold change vs veh, BDP1 / RFU, LRRCC1 / Fold change vs veh, LRRCC1 / RFU, ARID1A / Fold change vs veh, ARID1A / RFU, ZNF146 / Fold change vs veh, ZNF146 / RFU, ZNF330 / Fold change vs veh, ZNF330 / RFU, GPN3 / Fold change vs veh, GPN3 / RFU, C9orf123 / Fold change vs veh, C9orf123 / RFU, N4BP2L2 / Fold change vs veh, N4BP2L2 / RFU, ARFIP1 / Fold change vs veh, ARFIP1 / RFU, FAM179B / Fold change vs veh, FAM179B / RFU, BCL10 / Fold change vs veh, BCL10 / RFU, UHRF1BP1L / Fold change vs veh, UHRF1BP1L / RFU, BET1 / Fold change vs veh, BET1 / RFU, CNOT2 / Fold change vs veh, CNOT2 / RFU, ZNF268 / Fold change vs veh, ZNF268 / Fold change vs veh, ZNF507 / RFU, DGCR2 / Fold change vs veh, DGCR2 / RFU, WDSUB1 / Fold change vs veh, WDSUB1 / Fold change vs veh, HSP90B1 /// MIR3652 / RFU, ADSS / Fold change vs veh, ADSS / RFU, GK / Fold change vs veh, GK / RFU, ZNF148 / Fold change vs veh, ZNF148 / RFU, TAF9 / Fold change vs veh, TAF9 / RFU, SLC1A5 / Fold change vs veh, SLC1A5 / RFU, SLMO2 / Fold change vs veh, SLMO2 / RFU, ABCC4 / Fold change vs veh, ABCC4 / RFU, LOC101060439 /// RAP1B / Fold change vs veh, LOC101060439 /// RAP1B / RFU, RFX7 / Fold change vs veh, RFX7 / RFU, GTPBP10 / Fold change vs veh, GTPBP10 / RFU, CNEP1R1 / Fold change vs veh, CNEP1R1 / RFU, BIVM-ERCC5 /// ERCC5 / Fold change vs veh, BIVM-ERCC5 /// ERCC5 / RFU, ILF3 / Fold change vs veh, ILF3 / RFU 11762660_at / Fold change /veh 11762660_at / RFU VCAN (11757783_s_at) / Fold change /veh VCAN (11757783_s_at) / RFU DDX43 (11728927_at) / Fold change /veh DDX43 (11728927_at) / RFU KRT8 (11758188_x_at) / Fold change /veh KRT8 (11758188_x_at) / RFU NKD1 (11759106_at) / Fold change /veh NKD1 (11759106_at) / RFU SRD5A1 (11742802_a_at) / Fold change /veh SRD5A1 (11742802_a_at) / RFU TPSAB1 /// TPSB2 (11721975_s_at) / Fold change /veh TPSAB1 /// TPSB2 (11721975_s_at) / RFU GSTM3 (11746129_a_at) / Fold change /veh GSTM3 (11746129_a_at) / RFU IL23R (11737362_x_at) / Fold change /veh IL23R (11737362_x_at) / RFU TMEM51 (11727254_a_at) / Fold change /veh TMEM51 (11727254_a_at) / RFU PIWIL2 (11732686_x_at) / Fold change /veh PIWIL2 (11732686_x_at) / RFU ORM1 (11744905_x_at) / Fold change /veh ORM1 (11744905_x_at) / RFU CCDC152 (11743942_at) / Fold change /veh CCDC152 (11743942_at) / RFU ECM1 (11717891_a_at) / Fold change /veh ECM1 (11717891_a_at) / RFU IL23R (11748794_a_at) / Fold change /veh IL23R (11748794_a_at) / RFU TNFAIP8L3 (11732012_x_at) / Fold change /veh TNFAIP8L3 (11732012_x_at) / RFU MBOAT4 (11741988_at) / Fold change /veh MBOAT4 (11741988_at) / RFU 11764193_at / Fold change /veh 11764193_at / RFU TMEM53 (11763286_at) / Fold change /veh TMEM53 (11763286_at) / RFU MAGEB2 (11727129_at) / Fold change /veh MAGEB2 (11727129_at) / RFU TMEM200A (11744735_a_at) / Fold change /veh TMEM200A (11744735_a_at) / RFU CCDC152 (11751479_a_at) / Fold change /veh CCDC152 (11751479_a_at) / RFU FAM211A (11726209_a_at) / Fold change /veh FAM211A (11726209_a_at) / RFU RGS16 (11746705_a_at) / Fold change /veh RGS16 (11746705_a_at) / RFU VCAN (11755009_s_at) / Fold change /veh VCAN (11755009_s_at) / RFU RHOB (11743442_s_at) / Fold change /veh RHOB (11743442_s_at) / RFU RGS16 (11720943_a_at) / Fold change /veh RGS16 (11720943_a_at) / RFU RGS16 (11720944_at) / Fold change /veh RGS16 (11720944_at) / RFU, VPS4B / Fold change vs veh, VPS4B / RFU, CREB1 / Fold change vs veh, CREB1 / RFU, DNAJC13 / Fold change vs veh, DNAJC13 / RFU, GNAQ / Fold change vs veh, GNAQ / RFU, CDK5R1 / Fold change vs veh, CDK5R1 / RFU, ZRANB3 / Fold change vs veh, ZRANB3 / RFU, CUL4A / Fold change vs veh, CUL4A / RFU, CCNY / Fold change vs veh, CCNY / RFU, UFL1 / Fold change vs veh, UFL1 / RFU, COG3 / Fold change vs veh, COG3 / RFU, DIAPH2 / Fold change vs veh, DIAPH2 / RFU, SKA2 / Fold change vs veh, SKA2 / RFU, AFF3 / Fold change vs veh, AFF3 / RFU, LMF1 / Fold change vs veh, LMF1 / RFU, IPO11 / Fold change vs veh, IPO11 / RFU, DFFB / Fold change vs veh, DFFB / RFU, FOXP1 / Fold change vs veh, FOXP1 / RFU, CARD8 / Fold change vs veh, CARD8 / RFU, STRN3 / Fold change vs veh, STRN3 / RFU, ADK / Fold change vs veh, ADK / RFU, RASSF2 / Fold change vs veh, RASSF2 / RFU, WIPF1 / Fold change vs veh, WIPF1 / RFU, LARP1B / Fold change vs veh, LARP1B / RFU, RASA1 / Fold change vs veh, RASA1 / RFU, RB1 / Fold change vs veh, RB1 / RFU, PPFIA1 / Fold change vs veh, PPFIA1 / RFU, MAT2A / Fold change vs veh, MAT2A / RFU, CCT5 / Fold change vs veh, CCT5 / RFU, WDR92 / Fold change vs veh, WDR92 / RFU, CUX1 / Fold change vs veh, CUX1 / RFU, TTC7A / Fold change vs veh, TTC7A / RFU, TMEM135 / Fold change vs veh, TMEM135 / RFU, DEPTOR / Fold change vs veh, DEPTOR / RFU, CPM / Fold change vs veh, CPM / RFU, DNAJB6 / Fold change vs veh, DNAJB6 / RFU, CACNA2D3 / Fold change vs veh, CACNA2D3 / RFU, DTX4 / Fold change vs veh, DTX4 / RFU, TFCP2 / Fold change vs veh, TFCP2 / RFU, GMCL1 /// GMCL1P1 / Fold change vs veh, GMCL1 /// GMCL1P1 / RFU, AEBP2 / Fold change vs veh, AEBP2 / RFU, SNHG1 /// SNORD22 /// SNORD25 /// SNORD26 /// SNORD27 /// SNORD28 /// SNORD29 /// SNORD31 / Fold change vs veh, SNHG1 /// SNORD22 /// SNORD25 /// SNORD26 /// SNORD27 /// SNORD28 /// SNORD29 /// SNORD31 / Fold change (Aza/veh), C12orf56 (ProbeSet 11735607_a_at) / Fold change (ACY-1035/veh), C12orf56 (ProbeSet 11735607_a_at) / Fold change (Aza/veh), FGFR1OP (ProbeSet 11751329_s_at) / Fold change (ACY-1035/veh), FGFR1OP (ProbeSet 11751329_s_at) / Fold change (Aza/veh), VPS36 (ProbeSet 11739960_a_at) / Fold change (ACY-1035/veh), VPS36 (ProbeSet 11739960_a_at) / RFU SYPL1 (11715823_x_at) / Fold change /veh SYPL1 (11715823_x_at) / RFU IGFBP7 (11715501_s_at) / Fold change /veh IGFBP7 (11715501_s_at) / RFU REEP3 (11722064_at) / Fold change /veh REEP3 (11722064_at) / RFU IGLL1 (11728026_x_at) / Fold change /veh IGLL1 (11728026_x_at): dose or concentration left out as unconfirmed
# Details: ProbeSet 11746640_a_at; LIST D
structure (smiles),measurement,value
Nc1ncn([C@@H]2O[C@H](CO)[C@@H](O)[C@H]2O)c(=O)n1 [azacitidine],"RFU, RASSF2",35.94 RFU
